Results published in PubChem BioAssay AID330 (DTP/NCI, 2004).
Values joined by “and” are separate entries in the source; they are usually repeats but may differ in a detail not shown here. Equal entries are not always repeated. Toxic doses and inconclusive results are not listed. How the source made its calls: active means survival T/C of 150% or more; inactive means T/C below 125% in these data.

Test system: P388 leukemia ip, CD2F1 mice, survival T/C
Experiment: NCI In Vivo Anticancer Drug Screen. Data for tumor model P388 Leukemia (intraperitoneal) in CD2F1 (CDF1) mice
Settings: endpoint: median survival time, higher = longer survival
How it was run: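 Mice carrying the transplanted tumor received test compound or vehicle. Survival was recorded in each group, and the value is the treated-group measurement divided by that of the vehicle-treated control group.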

[1] = dose: 50.0 mg/kg/injection, schedule: Q01DX005 (ip), vehicle: saline with Tween-80
[2] = dose: 100.0 mg/kg/injection, schedule: Q01DX005 (ip), vehicle: saline with Tween-80
[3] = dose: 200.0 mg/kg/injection, schedule: Q01DX005 (ip), vehicle: saline with Tween-80
[4] = dose: 12.5 mg/kg/injection, schedule: Q01DX009 (ip), vehicle: water
[5] = dose: 25.0 mg/kg/injection, schedule: Q01DX009 (ip), vehicle: water
[6] = dose: 50.0 mg/kg/injection, schedule: Q01DX009 (ip), vehicle: water
[7] = dose: 25.0 mg/kg/injection, schedule: Q01DX009 (ip), vehicle: saline with Tween-80
[8] = dose: 50.0 mg/kg/injection, schedule: Q01DX009 (ip), vehicle: saline with Tween-80
[9] = dose: 100.0 mg/kg/injection, schedule: Q01DX009 (ip), vehicle: saline with Tween-80
[10] = dose: 200.0 mg/kg/injection, schedule: Q01DX009 (ip), vehicle: saline with Tween-80
[11] = dose: 100.0 mg/kg/injection, schedule: Q04DX002 (ip), vehicle: Klucel (hydroxypropylcellulose) (HPC)
[12] = dose: 200.0 mg/kg/injection, schedule: Q04DX002 (ip), vehicle: Klucel (hydroxypropylcellulose) (HPC)
[13] = dose: 400.0 mg/kg/injection, schedule: Q01DX009 (ip), vehicle: saline with Tween-80
[14] = dose: 100.0 mg/kg/injection, schedule: Q04DX003 (ip), vehicle: saline with Tween-80
[15] = dose: 200.0 mg/kg/injection, schedule: Q04DX003 (ip), vehicle: saline with Tween-80
[16] = dose: 400.0 mg/kg/injection, schedule: Q04DX003 (ip), vehicle: saline with Tween-80
[17] = dose: 50.0 mg/kg/injection, schedule: Q01DX009 (ip), vehicle: Klucel (hydroxypropylcellulose) (HPC)
[18] = dose: 100.0 mg/kg/injection, schedule: Q01DX009 (ip), vehicle: Klucel (hydroxypropylcellulose) (HPC)
[19] = dose: 200.0 mg/kg/injection, schedule: Q01DX009 (ip), vehicle: Klucel (hydroxypropylcellulose) (HPC)

Measured: T/C

CC(C)N(C(=O)c1ncccc1C(=O)c1ccccn1)C(C)C
inactive: [1] 105 % of control | [2] 94 % of control | [3] 94 % of control

N#CC1(O)CCCCC1
inactive: dose: 2.5 mg/kg/injection, schedule: Q01DX009 (ip), vehicle: saline with Tween-80 100 % of control | dose: 5.0 mg/kg/injection, schedule: Q01DX009 (ip), vehicle: saline with Tween-80 104 % of control | dose: 10.0 mg/kg/injection, schedule: Q01DX009 (ip), vehicle: saline with Tween-80 104 % of control

O=S(=O)(NC(=S)S)c1ccccc1
inactive: [4] 102 % of control and 88 % of control and 94 % of control | [5] 104 % of control and 107 % of control and 94 % of control | [6] 102 % of control and 106 % of control and 116 % of control | dose: 100.0 mg/kg/injection, schedule: Q01DX009 (ip), vehicle: water 112 % of control (2×) and 123 % of control

CN1CC(CO)=CC2c3cccc4[nH]cc(c34)CC21 (centres undefined)
inactive: [7] 111 % of control | [8] 104 % of control | [9] 104 % of control

O=C1C=C2SCCN2C(=O)C1
inactive: [7] 101 % of control | [8] 92 % of control | [9] 97 % of control | [10] 99 % of control

COc1ccc(C(=O)Cc2ccccc2C#N)cc1
inactive: [11] 100 % of control | [12] 99 % of control | dose: 400.0 mg/kg/injection, schedule: Q04DX002 (ip), vehicle: Klucel (hydroxypropylcellulose) (HPC) 99 % of control

O=NNc1nc2c(Cl)cccc2s1
inactive: dose: 1.56 mg/kg/injection, schedule: Q01DX009 (ip), vehicle: water 102 % of control | dose: 3.12 mg/kg/injection, schedule: Q01DX009 (ip), vehicle: water 101 % of control | dose: 3.15 mg/kg/injection, schedule: Q01DX009 (ip), vehicle: water 102 % of control | dose: 6.25 mg/kg/injection, schedule: Q01DX009 (ip), vehicle: water 99 % of control and 100 % of control | [4] 99 % of control and 114 % of control | [5] 100 % of control and 111 % of control | [6] 106 % of control

NC(=O)c1nnn(Cc2ccccc2)c1N
inactive: [7] 119 % of control | [8] 102 % of control | [9] 109 % of control | [10] 106 % of control | [13] 110 % of control

COC1C(OC(=O)c2ccc(C)[nH]2)C(O)C(Oc2ccc3c(O)c(NC(=O)c4c[nH]c(C(=O)Nc5c(O)c6ccc(OC7OC(C)(C)C(OC)C(OC(=O)c8ccc(C)[nH]8)C7O)c(C)c6oc5=O)c4C)c(=O)oc3c2C)OC1(C)C (centres undefined)
inactive: dose: 6.25 mg/kg/injection, schedule: Q01DX009 (ip), vehicle: saline with Tween-80 110 % of control and 97 % of control | dose: 12.5 mg/kg/injection, schedule: Q01DX009 (ip), vehicle: saline with Tween-80 100 % of control and 122 % of control | [7] 96 % of control | [8] 103 % of control | dose: 50.0 mg/kg/injection, schedule: Q01DX009 (ip), vehicle: saline 118 % of control | [9] 90 % of control | dose: 100.0 mg/kg/injection, schedule: Q01DX009 (ip), vehicle: saline 113 % of control | [14] 109 % of control | [10] 109 % of control | dose: 200.0 mg/kg/injection, schedule: Q01DX009 (ip), vehicle: saline 102 % of control | [15] 100 % of control | [13] 100 % of control | dose: 400.0 mg/kg/injection, schedule: Q01DX009 (ip), vehicle: saline 117 % of control | [16] 109 % of control

Cc1ccc(Nc2cc(C(=O)O)c(Nc3ccc(C)cc3)cc2C(=O)O)cc1
inactive: [17] 102 % of control | [18] 111 % of control | [19] 102 % of control

CC(=O)Nc1ccc(S(=O)(=O)Nc2cccc3[nH]c(=O)oc23)cc1
inactive: dose: 50.0 mg/kg/injection, schedule: Q04DX002 (ip), vehicle: Klucel (hydroxypropylcellulose) (HPC) 98 % of control | [11] 95 % of control | [12] 92 % of control

COc1ccc2c(c1)C(Cc1ccc(Oc3cc(CC4c5cc(OC)ccc5CC[N+]4(C)C)ccc3OC)cc1)[N+](C)(C)CC2 (centres undefined)
inactive: dose: 1.56 mg/kg/injection, schedule: Q04DX003 (ip), vehicle: water 106 % of control | dose: 3.13 mg/kg/injection, schedule: Q04DX003 (ip), vehicle: water 102 % of control

Cc1cc(C)nc(NS(=O)(=O)c2ccc(N=NC3=C(O)C(c4ccccc4)N(c4ccccc4)C3=O)cc2)n1 (centres undefined)
inactive: dose: 60.0 mg/kg/injection, schedule: Q01DX005 (ip), vehicle: saline 93 % of control | dose: 120.0 mg/kg/injection, schedule: Q01DX005 (ip), vehicle: saline 86 % of control

CC(C)(C)COCC(O)Cn1cnc2c(N)ncnc21 (centres undefined)
inactive: dose: 50.0 mg/kg/injection, schedule: Q01DX005 (ip), vehicle: Klucel (hydroxypropylcellulose) (HPC) 100 % of control | dose: 100.0 mg/kg/injection, schedule: Q01DX005 (ip), vehicle: Klucel (hydroxypropylcellulose) (HPC) 97 % of control | dose: 200.0 mg/kg/injection, schedule: Q01DX005 (ip), vehicle: Klucel (hydroxypropylcellulose) (HPC) 91 % of control

O=C(CC1(Cl)C(F)(F)C(F)(F)C1(F)F)c1ccccc1
inactive: dose: 6.25 mg/kg/injection, schedule: Q04DX003 (ip), vehicle: saline 100 % of control | dose: 12.5 mg/kg/injection, schedule: Q04DX003 (ip), vehicle: saline 100 % of control | dose: 25.0 mg/kg/injection, schedule: Q04DX003 (ip), vehicle: saline 100 % of control

O=C1OC2c3ccccc3C(=O)C2(c2ccccc2)O1 (centres undefined)
inactive: dose: 100.0 mg/kg/injection, schedule: Q01DX001 (ip), vehicle: saline with Tween-80 97 % of control | [2] 97 % of control | dose: 200.0 mg/kg/injection, schedule: Q01DX001 (ip), vehicle: saline with Tween-80 97 % of control | [3] 97 % of control | dose: 400.0 mg/kg/injection, schedule: Q01DX001 (ip), vehicle: saline with Tween-80 96 % of control | dose: 400.0 mg/kg/injection, schedule: Q01DX005 (ip), vehicle: saline with Tween-80 96 % of control

O=C(NC1CCCCC1(O)c1ccc([N+](=O)[O-])cc1)C(Cl)Cl (centres undefined)
inactive: [11] 100 % of control | [12] 100 % of control

COC(=O)C1(CC(=O)C2CC2)NC(=S)NC(=O)C1C#N (centres undefined)
inactive: dose: 60.0 mg/kg/injection, schedule: Q01DX005 (ip), vehicle: Klucel (hydroxypropylcellulose) (HPC) 103 % of control | dose: 120.0 mg/kg/injection, schedule: Q01DX005 (ip), vehicle: Klucel (hydroxypropylcellulose) (HPC) 100 % of control | dose: 240.0 mg/kg/injection, schedule: Q01DX005 (ip), vehicle: Klucel (hydroxypropylcellulose) (HPC) 100 % of control

CN(C)CCNc1cccc2sc3ccc(O)cc3c(=O)c12
inactive: dose: 12.5 mg/kg/injection, schedule: Q01DX005 (ip), vehicle: saline with Tween-80 113 % of control | dose: 25.0 mg/kg/injection, schedule: Q01DX005 (ip), vehicle: saline with Tween-80 115 % of control and 123 % of control | [1] 123 % of control and 124 % of control

C=CCCCN1C(=O)CCCC1=O
inactive: dose: 60.0 mg/kg/injection, schedule: Q01DX005 (ip), vehicle: saline with Tween-80 100 % of control | dose: 120.0 mg/kg/injection, schedule: Q01DX005 (ip), vehicle: saline with Tween-80 101 % of control | dose: 240.0 mg/kg/injection, schedule: Q01DX005 (ip), vehicle: saline with Tween-80 101 % of control

CC(C)(C)SC#CC(Sc1ccccc1)=C(Sc1ccccc1)Sc1ccccc1
inactive: [14] 100 % of control | [15] 100 % of control | [16] 100 % of control

C=CCCc1cc(OC)ccc1C(=O)C(C)C
inactive: dose: 25.0 mg/kg/injection, schedule: Q01DX009 (ip), vehicle: Klucel (hydroxypropylcellulose) (HPC) 100 % of control | [1] 99 % of control | [17] 104 % of control | [2] 107 % of control | [18] 102 % of control | [3] 100 % of control | [19] 104 % of control
